These results are taken from US20080070851A1, “METHOD FOR THE EXTRACTION OF […] ACTIVE PRODUCTS FROM SPERMATOPHYTE PLANTS, PRODUCTS THUS OBTAINED AND THEIR USE IN THE MEDICAL FIELD, IN […] AS SUBSTANCES WITH IMMUNOMODULATING ACTIVITY” (Institudo Agrario Di S. Michele All'Adige, priority 2000, published 2008).

The structures appear in SMILES notation.

Data set [1] concerns line MCF-7 derived from mammary adenocarcinoma. The following applies: in vitro; cited from earlier work.
Another data set has as its system platelet aggregation. The settings on record: cited from earlier work.
Data set [2] is described as follows: stability of the active agent in culture medium (HPLC quantification). The format is physicochemical. The settings on record: for halving time in culture medium: culture medium of ex. 10; for amount still present at the end of the test: culture medium of ex. 10, 72 h. The text has this: The instrumental conditions are the same as those described above for viniferine. The coefficient of molar extinction of both glucosides is almost the same as the one of the corresponding aglycones, so that they can be added as such after carrying out a correction for molecular weights (Mattivi et al. Isolation, characterization, and evolution in red wine vinification of resveratrol monomers, J. Agric. Food Chem., 1995, 43, 7, 1820-1823).
Zeitschdift fur Lebensmittel-Untersuchung und Forschung, 1993, 196, 522-525. In addition to what is contained in the aforesaid document, it has been verified that the method is suitable for all monomer stilbenes, both free and glucosides, and that the eluted fraction of ethyl acetate can be dried under a light flow of nitrogen, in case it is necessary to carry out the exchange in another solvent and/or to further reduce the limits of quantification.
Said techniques can be used for instance to control the stability of the active agent in culture mediums, and therefore to support in vitro experimental models which are going to be described in the following examples. For instance, the culture for means described in ex.

Data set [3] concerns skin cancer induced by carcinogenic substances. The settings on record: in vivo, murine model of skin cancer; cited from earlier work.
The subject of the next data set is cyclo-oxygenase. The settings on record: cited from earlier work.
For data set [4], the system named is line HL60 (human promyelocytic acute leukemia). The settings on record: cited from earlier work.
For data set [5], the system named is lymphocytes activated with anti-CD3/CD28. The data set can be described thus: apoptosis of activated lymphocytes. It is filed as cell-based, human. The text has this: (§1) Mononucleated cells of human peripheral blood (PBMC) deriving from healthy subjects have been obtained by separation on gradient (Ficoll-Hypaque) of cells deriving from buffy coat.
PBMC resuspended in a concentration of 1×10^6/ml have been fixed in acetone/methanol 1:4, treated with 100 KU/ml of RNase and marked with propydium iodide (50 mcg/ml). The cells have then been analyzed by means of flow cytofluorometry using a cytometer FACscan.
PBMC resuspended in a concentration of 1×10^6/ml have been fixed in 4% paraformaldehyde, treated with 100 KU/ml of RNase and marked with propydium iodide. The cells have then been analyzed by means of observation with a confocal microscope (LEIKA TCS 4D).
Mononucleated cells of human peripheral blood (PBMC) have been activated by incubation with anti-CD3+ anti-CD28 and then incubated with different doses of resveratrol (or DMSO as control) as described above. Non-activated cells deriving from the same buffy coat have been used as control.

In data set [6] the test system is human erythroleukemic line K 562. The data set can be described thus: natural killer (NK) activity of PBMC, 51Cr release. The format is cell-based. The following applies: 18 h incubation. As to the method:
as §1
PBMC in a concentration of 2×10^6 cells/ml have been treated in vitro with different doses of resveratrol for 18 h. At the end of the incubation the cells have been tested for their natural cytotoxic activity (NK) against the human erythroleukemic line K 562. The cytotoxic activity of the effect-producing cells incubated for 4 hours at 37° C. with K562 has been determined using a cytotoxicity standard test based on the release of ^51Cr by target cells.
(§2) Mononucleated cells of human peripheral blood (PBMC) have been incubated for 18 h with resveratrol in a concentration of 0.625, 1.25, 2.5, 5, 10 and 20 mcg/ml. At the end of the incubation the cells have been tested for their natural cytotoxic activity (NK) against the human erythroleukemic line K 562. […] On the contrary, at doses of 10 and 20 mcg/ml resveratrol induces an inhibition of NK activity.

Data set [7] relates to CD4+ T cells activated with anti-CD3/CD28. The data set can be described thus: cytofluorometric analysis of intracytoplasmatic cytokine levels, CD4+ T cells. The format is cell-based, human.
From the text: as §1
(§3) In vitro production of cytokines induced by activation with monoclonal anti-CD3 antibody carried out by the various T cell underpopulations in PBMC has been evaluated by means of a simultaneous cytofluorometric determination of the intracytoplasmatic cytokine content and of the expression of surface antigens in every single cell. By using said method it has been possible to evaluate the production of cytokines by single cell under-populations without previously physically separating them, and therefore in presence of the interactions in the production of cytokines which take place in physiological systems. The execution of said method is made possible by the use of saponin as reversible permeabilizing agent of cell membrane. In short, PBMC have been resuspended in a concentration of 1×10^6/ml, activated by treatment with anti-CD3 (10 ng/ml) and incubated with various doses of resveratrol. After 3 days of culture at 37° C. in a CO2 incubator, the cells have been treated with anti-CD28 (2 ng/ml) and with resveratrol in the same doses previously used. After further 3 days of treatment, the cells have been incubated with a fluorescent monoclonal antibody specific for a surface antigen (CD4 or CD8), resuspended in a medium with the addition of 0.3% saponin, and marked with an optimal dose of a mixture of anti-cytokine monoclonal antibodies conjugated with various fluorochromes. The samples thus treated have then undergone cytofluorometric analysis using a cytofluorometer FACscan (BD).
Mononucleated cells of human peripheral blood (PBMC) have been activated by incubation with anti-CD3+ anti-CD28 and then incubated with different doses of resveratrol (or DMSO as control) as described above. Non-activated cells deriving from the same buffy coat have been used as control. The percentage of T lymphocytes CD4+ and CD8+ positive for IL2, IL4 and IFN-γ has then been analyzed by means of flow cytofluorometry. […]

Another data set deals with MT-2 cells. Put plainly: cytotoxic activity of T lymphocytes (CTL), 51Cr release. The format is cell-based, human. The following applies: 5 days. As for the experimental part:
Mononucleated cells of human peripheral blood (PBMC) deriving from healthy subjects have been obtained by separation on gradient (Ficoll-Hypaque) of cells deriving from buffy coat. […] Mononucleated cells of human peripheral blood (PBMC) have been incubated with resveratrol in a concentration of 0.625, 1.25, 2.5, 5 and 10 mcg/ml in presence of MT-2 cells (line of human T cells deriving from blood of umbilical cord infected with HTLV1) for 5 days at 37° C. At the end of the incubation the cells have been tested for their cytotoxic activity against said MT-2 cells.

The test system of data set [8] is CD8+ T cells activated with anti-CD3/CD28. The data set can be described thus: cytofluorometric analysis of intracytoplasmatic cytokine levels, CD8+ T cells. It is filed as cell-based, human.
From the text: as §1, §3
Mononucleated cells of human peripheral blood (PBMC) have been activated by incubation with anti-CD3+ anti-CD28 and then incubated with different doses of resveratrol (or DMSO as control) as described above. Non-activated cells deriving from the same buffy coat have been used as control. The percentage of T lymphocytes CD4+ and CD8+ positive for IL2, IL4 and IFN-γ has then been analyzed by means of flow cytofluorometry. […] The activity peak varies according to the examined cytokine, and precisely: 1.25-2.5 for IFN-γ (FIG. 1A), 0.625 for IL2 (FIG. 1B) and 2.5 for IL4 (FIG. 1C).

For data set [9], the system named is lymphocytes activated with anti-CD3/CD28. Put plainly: cell proliferation (Coulter count) and DNA synthesis (BrdU incorporation). The format is cell-based, human. The source says:
(§4) Mononucleated cells of human peripheral blood (PBMC) deriving from healthy subjects have been obtained by separation on gradient (Ficoll-Hypaque) of cells deriving from buffy coat. Cell replication has been evaluated by a cellular count carried out using a Coulter Counter. DNA synthesis has been measured by the test of incorporation of bromodeoxyuridine (BrdU) evaluated by flow cytometry using a cytometer FACscan (Becton-Dickinson). Mononucleated cells of human peripheral blood (PBMC) have been activated by incubation with anti-CD3+ anti-CD28 and then incubated with different doses of resveratrol (or DMSO as control) as described above. Non-activated cells deriving from the same buffy coat have been used as control.
In general terms: Uptake of a labelled nucleoside into DNA is a usual measure of proliferation.

Data set [10] has the same test system. The data set can be described thus: cell mortality of activated lymphocytes. The format is cell-based, human. As to the method: as §4, with “mortality” for “replication”, “in trypan blue and/or” for “carried out using a Coulter Counter. DNA synthesis has been measured by the test of incorporation of bromodeoxyuridine (BrdU) evaluated”, “(Becton-Dickinson), determining the vitality of unfixed cells which have been marked with propydium iodide (PI).” for “(Becton-Dickinson).”

The subject of a further data set is human lymphocytes. Put plainly: expression of surface antigens CD16, CD4 and CD95 in lymphocytes. The following applies: dose of 5 mcg/ml. It is filed as cell-based. As for the experimental part:
as §1
PBMC have been resuspended in a concentration of 1×10^6/ml and incubated for different periods of time with various doses of resveratrol. The cells have then been incubated with one or more fluorescent monoclonal antibodies, each being specific for a surface antigen (CD4, CD8, CD16 and CD95), and they have undergone a cytofluorometric analysis using a cytofluorometer FACscan (BD).
as §2

Data set [11] has as its system PBMC activated with anti-CD3+ anti-CD28. Put plainly: percentage of CD4+ and CD8+ T lymphocytes in activated PBMC. The format is cell-based, human. As to the method: Mononucleated cells of human peripheral blood (PBMC) deriving from healthy subjects have been obtained by separation on gradient (Ficoll-Hypaque) of cells deriving from buffy coat. PBMC have been resuspended in a concentration of 1×10^6/ml and incubated for different periods of time with various doses of resveratrol.

Consider `Oc1ccc(/C=C/c2cc(O)cc(O)c2)cc1` [trans-resveratrol], for which the “growth of MCF-7 cells” value in [1] is recorded as “inhibit”. Further, in the data set on platelet aggregation, the platelet aggregation entry is given as “inhibits”. Also, in data set [2], the “halving time in culture medium” value is 28 h and the “amount still present at the end of the test” value was “not present as such”. Also, the tumor genesis entry in data set [3] is “inhibit tumor genesis”. In addition, in the data set on cyclo-oxygenase, the cyclo-oxygenase activity result was “inhibits”. Moreover, the “cellular cycle of HL60 cells” value in data set [4] is given as “induce the stop of the cellular cycle in the transition from stage S to stage G2”. Also, in data set [4] (high doses), the “apoptosis of HL60 cells” value is given as “induce apoptosis” and the “expression of CD95L in HL60 cells” value was “regulate the expression of CD95L”.

`Oc1ccc(/C=C\c2cc(O)cc(O)c2)cc1` [cis-resveratrol]: in [2], the “halving time in culture medium” value came to 38 h and the “amount still present at the end of the test” value is recorded as “about 25%”.

Take `Oc1ccc(C=Cc2cc(O)cc(O)c2)cc1` [resveratrol]: in [5] (dose range of 2.5-10 mcg/ml), the “percentage of apoptotic cells” value is given as “dose-dependent increase”. In data set [5] (doses of 0.625 and 1.25 mcg/ml), the “apoptosis of activated cells” value was “does not have any effect”. For the same molecule, the NK activity entry is “statistically significant increase” in [6] (dose range of 0.625-5 mcg/ml); “inhibition” in data set [6] (doses of 10 and 20 mcg/ml). In addition, in data set [7] (FIG. 2A), the “peak of stimulating activity, CD4+ cells positive for IFN-γ” value is 2.5 µg/mL. Besides, the “peak of stimulating activity, CD4+ cells positive for IL2” value in data set [7] (FIG. 2B) lay in the range of 1.25 to 2.5 µg/mL. In addition, in data set [7] (FIG. 2C), the “peak of stimulating activity, CD4+ cells positive for IL4” value came out at 0.625 µg/mL. Further, the “cytotoxic activity of T lymphocytes” value in the data set on MT-2 cells (dose of 0.625 mcg/ml) is listed as “increase”; in the data set with MT-2 cells (dose range of 2.5-10 mcg/ml), “inhibition”. In addition, the figures for the “number of blast cells” value in the data set with MT-2 cells (dose of 0.625 mcg/ml) and in the data set with MT-2 cells (dose range of 2.5-10 mcg/ml) were “increase” and “inhibition”, respectively. Also, in data set [8] (dose of 5 and more significantly 10 mcg/ml), the “percentage of CD8+ cells which can synthesize all tested cytokines” value was “inhibition”. Moreover, the “activity peak, CD8+ cells positive for IFN-γ” value in [8] (dose of peak stimulation, FIG. 1A) was 1.25 to 2.5 µg/mL. The “activity peak, CD8+ cells positive for IL2” value in data set [8] (dose of peak stimulation, FIG. 1B) turned out to be 0.625 µg/mL. Moreover, the “activity peak, CD8+ cells positive for IL4” value in data set [8] (dose of peak stimulation, FIG. 1C) is 2.5 µg/mL. Besides, the “percentage of T cells CD8+ positive for intracellular IFN-γ, IL2 and IL4” value in data set [8] (dose range 0.625-2.5 mcg/ml, with respect to controls) was “significant increase”. Moreover, the cell proliferation result in [9] (dose range of 2.5-10 mcg/ml, FIGS. 3A and 3B) was “dose-dependent inhibition”. The “number of treated cells” value in [9] (doses of 0.625 and 1.25 mcg/ml, FIG. 3A) is given as “statistically significant increase”. In data set [9] (doses of 0.625 and 1.25 mcg/ml, FIG. 3B), the “ability to synthesize DNA” value was “statistically significant increase”. Further, the “mortality of activated cells” value in data set [10] (dose range of 2.5-10 mcg/ml) is reported as “dose-dependent increase”; in data set [10] (doses of 0.625 and 1.25 mcg/ml) it was “does not have any effect”. Further, in the data set with human lymphocytes, the “cells which can co-express CD16 and CD95 (CD16+/CD95+ cells)” value was “significant increase”. Further, the “percentage of CD4+/CD95+ cells” value in the data set with human lymphocytes is “does not induce any variation”. For the same molecule, the “percentage of CD4+ cells” value in [11] (all tested doses) is recorded as “does not induce any variation”. The “percentage of activated CD8+ cells” value in [11] (dose range of 2.5-10 mcg/ml) is “dose-dependent decrease”; in data set [11] (lower doses (below 2.5 mcg/ml)) it was “does not induce any variation”.
